# Read-outs that look alike come from different tables or passages of the source.
# Tests used:
# [1] = tested on: Group I or Group III receptors; conditions: at sub-mM concentrations; cited from earlier work
# [2] = biological target: mGluR2 (Homo sapiens, UniProt Q14416); conditions: read-out: IC50 against mGluR2; cited from earlier work
# [3] = biological target: mGluR3 (Homo sapiens, UniProt Q14832); conditions: read-out: IC50 against mGluR3; cited from earlier work
# [4] = tested on: human neural stem cells (hNSCs)
# From the text: (§1) Mitogen-free test media with a positive control for neuronal differentiation was used along with basal media without growth factors as a negative control.
# (§2) A positive control for neuronal differentiation was used along with basal media without growth factors as a negative control.
# (§3) Human neural stem cells (hNSCs) were isolated and grown in monolayer culture, plated, treated with varying concentrations of rosiglitazone and/or N-acetylcysteine (test compounds), and stained with TUJ-1 antibody, as described above. Mitogen-free test media with a positive control for neuronal differentiation was used along with basal media without growth factors as a negative control.
# (§4) Human neural stem cells (hNSCs) were isolated and grown in monolayer culture, plated, treated with varying concentrations of ciglitazone and/or N-acetylcysteine (test compounds), and stained with TUJ-1 antibody, as described above. Mitogen-free test media with a positive control for neuronal differentiation was used along with basal media without growth factors as a negative control.
# (§5) Human neural stem cells (hNSCs) were isolated and grown in monolayer culture, plated, treated with varying concentrations of pioglitazone and/or N-acetylcysteine (test compounds), and stained with TUJ-1 antibody, as described above. Mitogen-free test media with a positive control for neuronal differentiation was used along with basal media without growth factors as a negative control.
# (§6) Human neural stem cells (hNSCs) were isolated and grown in monolayer culture, plated, treated with varying concentrations of troglitazone and/or N-acetylcysteine (test compounds), and stained with TUJ-1 antibody, as described above. Mitogen-free test media with a positive control for neuronal differentiation was used along with basal media without growth factors as a negative control.
# (§7) The presence of synergy was determined by use of a combination index (CI). […] The CI is a quantitative measure of the nature of drug interactions, comparing the EC50's of two compounds, when each is assayed alone, to the EC50 of each compound when assayed in combination. The combination index (CI) is equal to the following formula:
# (§8) where C1 and C2 are the concentrations of a first and a second compound, respectively, resulting in 50% activity in neuronal differentiation when assayed in combination; and IC1 and IC2 are the concentrations of each compound resulting in 50% activity when assayed independently.
# [5] = tested on: KA, AMPA, and NMDA iGlu receptors; conditions: cited from earlier work
# [6] = tested on: mGlu7 and mGlu8; conditions: at higher concentrations (e.g., above 1 μM); cited from earlier work
# [7] = biological target: human mGlu2 receptors (Homo sapiens, UniProt Q14416); conditions: low nanomolar range, e.g. below about 10 nM, or below about 5 nM; read-out: EC50 against human mGlu2 receptors in vitro; cited from earlier work
# Sequence of human mGlu2 receptors (Q14416 19-872): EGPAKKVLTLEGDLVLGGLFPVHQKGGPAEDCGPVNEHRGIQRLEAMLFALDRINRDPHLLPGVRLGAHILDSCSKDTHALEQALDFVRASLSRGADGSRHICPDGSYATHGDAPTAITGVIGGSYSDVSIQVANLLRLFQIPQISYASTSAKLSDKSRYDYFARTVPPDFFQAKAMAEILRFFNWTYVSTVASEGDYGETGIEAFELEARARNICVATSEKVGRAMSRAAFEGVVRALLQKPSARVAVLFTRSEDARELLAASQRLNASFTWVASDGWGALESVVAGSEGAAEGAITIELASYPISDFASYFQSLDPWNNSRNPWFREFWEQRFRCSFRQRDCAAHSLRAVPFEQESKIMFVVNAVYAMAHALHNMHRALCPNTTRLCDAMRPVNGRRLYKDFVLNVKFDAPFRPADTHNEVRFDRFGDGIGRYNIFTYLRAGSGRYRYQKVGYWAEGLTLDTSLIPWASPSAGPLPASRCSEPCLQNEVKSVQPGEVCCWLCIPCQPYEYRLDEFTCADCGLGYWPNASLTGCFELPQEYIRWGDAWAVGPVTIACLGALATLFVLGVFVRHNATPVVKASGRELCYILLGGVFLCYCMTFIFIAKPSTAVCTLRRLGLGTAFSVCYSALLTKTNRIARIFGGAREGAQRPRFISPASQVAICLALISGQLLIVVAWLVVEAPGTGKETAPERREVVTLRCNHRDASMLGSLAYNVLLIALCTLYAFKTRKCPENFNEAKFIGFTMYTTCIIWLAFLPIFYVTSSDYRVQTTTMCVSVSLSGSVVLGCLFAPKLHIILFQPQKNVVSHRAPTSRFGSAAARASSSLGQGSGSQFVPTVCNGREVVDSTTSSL
# [8] = biological target: human mGlu3 receptors (Homo sapiens, UniProt Q14832); conditions: low nanomolar range, e.g. below about 10 nM, or below about 5 nM; read-out: EC50 against human mGlu3 receptors in vitro; cited from earlier work
# Sequence of human mGlu3 receptors (Q14832 23-879): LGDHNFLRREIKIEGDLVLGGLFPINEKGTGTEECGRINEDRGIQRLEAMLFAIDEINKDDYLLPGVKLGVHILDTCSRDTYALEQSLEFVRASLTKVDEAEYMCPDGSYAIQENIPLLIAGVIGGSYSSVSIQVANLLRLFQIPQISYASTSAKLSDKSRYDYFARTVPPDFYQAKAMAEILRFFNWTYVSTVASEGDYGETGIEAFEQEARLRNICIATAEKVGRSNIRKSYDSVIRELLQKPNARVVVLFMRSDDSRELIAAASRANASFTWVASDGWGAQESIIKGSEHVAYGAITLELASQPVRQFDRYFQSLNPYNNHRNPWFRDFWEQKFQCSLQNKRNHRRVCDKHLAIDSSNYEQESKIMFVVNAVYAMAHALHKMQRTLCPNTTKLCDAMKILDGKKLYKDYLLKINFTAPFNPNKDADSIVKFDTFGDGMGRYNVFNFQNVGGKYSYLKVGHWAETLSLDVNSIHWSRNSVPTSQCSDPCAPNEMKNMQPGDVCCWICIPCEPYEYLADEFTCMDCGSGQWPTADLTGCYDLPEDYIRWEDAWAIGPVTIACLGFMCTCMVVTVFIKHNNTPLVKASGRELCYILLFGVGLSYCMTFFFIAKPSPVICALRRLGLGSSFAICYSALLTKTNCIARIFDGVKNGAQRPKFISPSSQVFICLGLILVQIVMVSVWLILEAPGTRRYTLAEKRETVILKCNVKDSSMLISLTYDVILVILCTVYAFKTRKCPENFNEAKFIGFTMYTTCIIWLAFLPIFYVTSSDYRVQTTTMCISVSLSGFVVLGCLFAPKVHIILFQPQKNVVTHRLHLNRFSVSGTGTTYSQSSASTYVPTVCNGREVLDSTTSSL
# [9] = tested on: human neural stem cells (hNSCs); assay: Neuronal differentiation of human neural stem cells (TUJ-1 staining); conditions: read-out: EC50, neuronal differentiation, extrapolated, agent alone, extrapolated based on the data
# From the text: as §1, §2, §3, §4, §5, §6, §7, §8
# Sequence of mGluR3 (Q14832 23-879): as above
# Sequence of mGluR2 (Q14416 19-872): as the sequence (Q14416 19-872) above
Compound,EC50 [4],other results
"NC1(C(=O)O)CCc2cc(P(=O)(O)O)ccc21 (racemic) [APICA, (RS)-1-amino-5-phosphonoindan-1-carboxylic acid]",,activity against Group I or Group III receptors [1]: no appreciable activity; IC50 [2]: ~30 µM; IC50 [3]: ~30 µM
"CCc1ccc(CCOc2ccc(CC3SC(=O)NC3=O)cc2)nc1 (racemic) [pioglitazone, (RS)-5-(4-[2-(5-ethylpyridin-2-yl)ethoxy]benzyl)-thiazolidine-2,4-dione]",0.348 µM,
"CN(CCOc1ccc(CC2SC(=O)NC2=O)cc1)c1ccccn1 (racemic) [rosiglitazone, (RS)-5-[4-(2-[methyl(pyridin-2-yl)amino]ethoxy)-benzyl]thiazolidine-2,4-dione]",1.8 µM,
"N[C@](CC1c2ccccc2Oc2ccccc21)(C(=O)O)[C@H]1C[C@@H]1C(=O)O [LY341495, (2S)-2-amino-2-(1S,2S-2-carboxycycloprop-1-yl)-3-(xanth-9-yl) propanoic acid]",,"activity against KA, AMPA, and NMDA iGlu receptors [5]: substantially inactive; activity against mGlu7 and mGlu8 [6]: antagonist activity"
"N[C@@]1(C(=O)O)CO[C@H]2[C@H](C(=O)O)[C@H]21 [LY379268, (−)-2-oxa-4-aminobicyclohexane-4,6-dicarboxylic acid]",,EC50 [7]: < 0.01 µM; EC50 [8]: < 0.01 µM
"CC(=O)N[C@@H](CS)C(=O)O [NAC, N-acetyl-L-cysteine]",5.55 µM,
O=C(Nc1ccncc1)c1cc([N+](=O)[O-])ccc1Cl [T0070907],,EC50 [9]: 5.4 µM
"CC1(COc2ccc(CC3SC(=O)NC3=O)cc2)CCCCC1 (stereo not shown) [ciglitazone, 5-{4-[(1-methylcyclohexyl)methoxy]benzyl}-1,3-thiazolidine-2,4-dione]",0.1 µM,
CC(C)(Oc1ccc(C2CC2(Cl)Cl)cc1)C(=O)O (stereo not shown) [ciprofibrate],2.1 µM,
CCOC(=O)C(C)(C)Oc1ccc(Cl)cc1 [clofibrate],2.6 µM,
Nc1c2c(nc3ccccc13)CCCC2 [tacrine],12.6 µM,
"Cc1c(C)c2c(c(C)c1O)CCC(C)(COc1ccc(CC3SC(=O)NC3=O)cc1)O2 (stereo not shown) [troglitazone, 5-(4-[(6-hydroxy-2,5,7,8-tetramethylchroman-2-yl)methoxy]benzyl)thiazolidine-2,4-dione]",10 µM,
